The data set can be described thus: gradient 5% acetonitrile 3 min, to 50% in 2 min, to 85% in 15 min, held 3 min, 100 µL/min. The following applies: column: Zorbax Extend-C18 2.1 x 50 mm; eluents: water / acetonitrile, 0.1% formic acid. Put shortly: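 Pure standards were analyzed in mixtures of ~100 molecules using HPLC coupled to a quadrupole time-of-flight mass spectrometer, in both positive and negative ionization mode. Separation used a Zorbax Extend-C18 column (2.1 × 50 mm, 1.8 μm) at 100 μL/min, with water and acetonitrile each containing 0.1% formic acid. Dead and dwell volumes were 40 μL and 900 μL, and data were collected over 3 months. Retention time was read from computationally picked adduct peaks, each inspected manually.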
Regarding `O=C(CN1CC=C(c2cnn(-c3ccccc3)c2)CC1)N1CCOCC1`, the RP-LC retention time worked out at 604 s.

For the molecule `O=C(c1cc(-c2ccncc2)n[nH]1)N1CCN(C(=O)c2cccc3[nH]ccc23)CC1`, the RP-LC retention time amounted to 571 s.

In turn, `CN1C(=O)[C@H]2CN(Cc3ccc(Cl)cc3F)C[C@H]2C1=O` registered an RP-LC retention time of 644 s.

With `O=C(Cn1cc(C(=O)C2CC2)c2ccccc21)NCc1ccc2c(c1)OCCCO2`, the RP-LC retention time worked out at 831 s.

`COc1ccc(OC)c(CNC(=O)C2CCN(C(=O)C3Sc4ccccc4NC3=O)CC2)c1` (stereo unspecified) registered an RP-LC retention time of 743 s.

`COc1cc(S(=O)(=O)NCc2ccccc2)c(OC)cc1Br`: the RP-LC retention time was determined as 867 s.

Molecule `CCc1cc(=O)n(CC(=O)NCc2ccc(C)cc2)c(N2CCOCC2)n1` registered an RP-LC retention time of 747 s.

`CCc1nnc2ccc(S(=O)(=O)Nc3cccc(F)c3)cn12` came in with an RP-LC retention time of 714 s.

For `CCc1nc(-c2csc(S(=O)(=O)N3CCC(C(=O)Nc4ccccc4)CC3)c2)no1`, the RP-LC retention time was determined as 952 s.

Take `Clc1cccc(-c2nnc(-c3nc(NC4CCCC4)c4ccccc4n3)o2)c1`: the RP-LC retention time was determined as 1170 s.

`COc1ccc(-c2nnc3sc(-c4cccnc4)nn23)cc1OC` had an RP-LC retention time of 695 s.

Molecule `CC(C)S(=O)(=O)c1cc2c(cc1NC(=O)c1c(F)cccc1F)n(C)c(=O)n2C` registered an RP-LC retention time of 792 s.

With `CCc1nnc(-c2cc(NC(=O)Cc3c[nH]c4ccccc34)c(C)s2)o1`, the RP-LC retention time is 720 s.

On to `CCOc1ccccc1N(CC)C(=O)C1CCCN(c2ncnc3c2nc2n3CCCCC2)C1` (stereo unspecified), for which the RP-LC retention time was 807 s.

`Cc1nc(C)c(C(=O)N2CCC(CC(=O)N3CCOCC3)C2)s1` (stereo unspecified) registered an RP-LC retention time of 684 s.

With `COc1ccccc1C(=O)N1CCCC(c2nnc(C)s2)C1` (stereo unspecified), the RP-LC retention time is 646 s.

Molecule `CN1C2CCC1CC(OC(=O)c1c[nH]c3ccccc13)C2` (stereo unspecified) yielded an RP-LC retention time of 644 s.

`CCOC(=O)CCCn1c(=O)c2cccn2c2ccc(F)cc21` came in with an RP-LC retention time of 847 s.

`Cc1ccn2c(Nc3ccc4c(c3)OCCO4)c(-c3cccc(Br)c3)nc2c1` registered an RP-LC retention time of 739 s.

As to `O=C(Nc1ccc2nncn2c1)c1ccc(Cl)cc1`, the RP-LC retention time stood at 719 s.

For `O=c1c(=O)n(-c2ccccc2)ccn1Cc1nc(-c2cccc(Br)c2)no1`, the RP-LC retention time was 885 s.

With `O=C(Nc1nnc(-c2ccc(C(F)(F)F)cc2)o1)C1CC1`, the RP-LC retention time came to 714 s.

`CCOC(=O)Cc1ccc(NC(=O)NCCc2c(C)nn(C)c2C)cc1` displayed an RP-LC retention time of 644 s.

`CCN1c2ccc(F)cc2C(=O)NC12CCN(C(=O)c1ccccc1C)CC2` showed an RP-LC retention time of 835 s.

As to `CCCn1ccc2sc(C)c(C(=O)NC(C)C)c2c1=O`, the RP-LC retention time came to 720 s.

Take `Cc1cccc(NC(=O)Nc2ccc3c(c2)CCN3S(=O)(=O)c2ccccc2)c1C`: the RP-LC retention time was determined as 984 s.

For the molecule `O=C(Cc1csc(Nc2cccc(Cl)c2)n1)NCc1cccnc1`, the RP-LC retention time turned out to be 575 s.

In turn, `O=C(Nc1ccc(N2CCOCC2)cc1)C1CCCN(c2ccnc(-c3ccc(F)cc3)n2)C1` (stereo unspecified) came in with an RP-LC retention time of 649 s.

As for `COc1cc(=O)c(C(=O)Nc2ccc(S(N)(=O)=O)cc2)nn1-c1ccc(F)cc1`, the RP-LC retention time was 678 s.

As for `COCc1ncc(C)n1CCNC(=O)NC1CCCCC1`, the RP-LC retention time was 587 s.

In the case of `CCc1cc(=O)n(CC(=O)Nc2ccc(C)c(Cl)c2)c(N2CCOCC2)n1`, the RP-LC retention time came to 871 s.

The molecule `O=C(COc1ccccc1Br)Nc1nc(-c2ccccc2)cs1` showed an RP-LC retention time of 1130 s.

The molecule `COc1ccc(-c2nc(N(Cc3ccco3)C3CCCCC3)c3ccccc3n2)cc1` yielded an RP-LC retention time of 1030 s.

`CCc1noc(NC(C)=O)c1-c1ccc(C)c(S(=O)(=O)Nc2cc(C)cc(C)c2)c1` registered an RP-LC retention time of 885 s.

In turn, `CCCN1C(=O)c2cccnc2Sc2cc(C(=O)NC(C)C)ccc21` had an RP-LC retention time of 753 s.

In the case of `COc1cc(Cl)ccc1C(=O)N1CCc2nc[nH]c2C1`, the RP-LC retention time is 593 s.

Molecule `Cn1cnc([N+](=O)[O-])c1Sc1ncn[nH]1` yielded an RP-LC retention time of 626 s.

As for `Fc1ccc(CN2CCC(Cc3nc(-c4ccncc4)n[nH]3)C2)c(F)c1` (stereo unspecified), the RP-LC retention time is 552 s.

The molecule `CCCC(=O)Nc1cc2c(cc1S(=O)(=O)c1ccc(C)cc1)n(C)c(=O)n2C` came in with an RP-LC retention time of 824 s.

`Cc1cc(C)n(-c2ncnc3c2cnn3Cc2ccccc2)n1` registered an RP-LC retention time of 1240 s.

Molecule `CCCNC(=O)c1ncn2c1C(=O)N(C1CC1)C(C)(C(=O)NCc1ccc(F)cc1)C2` (stereo unspecified) registered an RP-LC retention time of 692 s.

In turn, `Cc1noc(-c2nc(-c3ccc(OC(C)C)cc3)no2)n1` gave an RP-LC retention time of 1120 s.

`CCN(Cc1ccc(OC)cc1)Cc1cc(=O)c2cc(F)ccc2[nH]1` gave an RP-LC retention time of 613 s.

For the molecule `CCc1ccc(S(=O)(=O)N2CCN(C3CCN(CCC(C)C)C3=O)CC2)cc1` (stereo unspecified), the RP-LC retention time amounted to 736 s.

`CCCOc1nccnc1N1CCC(N(C)C(=O)Cc2cccnc2)C1` (stereo unspecified) displayed an RP-LC retention time of 599 s.

`COc1ccc(N2CCN(c3cc(SCC(=O)Nc4cccc(SC)c4)ncn3)CC2)cc1` displayed an RP-LC retention time of 1000 s.

In turn, `c1ccc2c(c1)CCC[C@H]2Nc1nc2ccccc2[nH]1` gave an RP-LC retention time of 705 s.

In turn, `O=C(Nc1ccc(N2CCN(c3ccccc3)C2=O)nc1)c1ccc(Br)o1` displayed an RP-LC retention time of 892 s.

`CCn1nnc(NCc2ccc(-c3cccc(Cl)c3)o2)n1` came in with an RP-LC retention time of 1010 s.

Consider `Cc1c(F)cccc1NC(=O)c1cc2n(n1)CCCC2`, for which the RP-LC retention time was determined as 931 s.

Molecule `CCCc1ccc(-c2cc(C(=O)N3CCN(c4ncccn4)CC3)c3ccccc3n2)cc1` had an RP-LC retention time of 1180 s.

With `O=S(=O)(c1cccn2c(SCc3ccc(Cl)cc3)nnc12)N1CCCC1`, the RP-LC retention time was determined as 848 s.

Turning to `CCOC(=O)C1CCN(C(=O)C2CCN(c3cncnc3N(C)C)CC2)CC1`, the RP-LC retention time was determined as 603 s.

With `O=S(=O)(c1ccc(-c2cnc(C3CCCC3)o2)s1)N1CCN(c2ccccn2)CC1`, the RP-LC retention time amounted to 842 s.

Consider `COc1ccc(OC)c(NC(=O)N2C[C@@H](F)C[C@H]2C(=O)N2CCc3ccccc3C2)c1`, for which the RP-LC retention time was 826 s.

On to `O=C(N[C@H]1C[C@@H]2C[C@H]1N(S(=O)(=O)c1cc(F)cc(F)c1)C2)c1cccs1`, for which the RP-LC retention time came out at 720 s.

With `COCCN1C(=O)[C@H]2CN(Cc3cccc(OC(F)(F)F)c3)C[C@H]2C1=O`, the RP-LC retention time stood at 706 s.

For `CN1CCC(NC(=O)c2ncoc2-c2ccccc2)CC1`, the RP-LC retention time was determined as 602 s.

The molecule `COc1ccc(CCc2nc(Cn3c(C)nc4ccccc4c3=O)no2)cc1` displayed an RP-LC retention time of 858 s.

`Cn1cc(C2=C(c3ccc(Cl)cc3Cl)C(=O)NC2=O)c2ccccc21` came in with an RP-LC retention time of 1110 s.

As for `CCOc1ccc(NC(=O)C2CCCN2S(=O)(=O)c2cc3c(cc2Cl)NC(=O)CO3)cc1` (stereo unspecified), the RP-LC retention time was determined as 785 s.

In turn, `O=C(Cc1ccsc1)NCCn1c(=O)n(Cc2ccc(F)cc2)c2cccnc21` gave an RP-LC retention time of 781 s.

On to `COc1ccc(CN2CCC[C@H]2c2nc(C3CCOCC3)n[nH]2)c(Cl)c1OC`, for which the RP-LC retention time worked out at 584 s.

The molecule `O=C1C(N2CCCN(S(=O)(=O)c3cccc(Cl)c3)CC2)CCN1Cc1ccccc1` (stereo unspecified) showed an RP-LC retention time of 718 s.

`COc1ccc(NC(=O)CSc2ccc(-c3cccs3)nn2)c(OC)c1`: the RP-LC retention time turned out to be 890 s.

In turn, `Cc1ccc(NC(=O)CCCN2C(=O)COc3ccc(C)cc32)c(C)c1` returned an RP-LC retention time of 929 s.

`Cc1cc(-c2nnc(-c3ccco3)o2)c(C)n1CC(=O)Nc1ccc(F)cc1` had an RP-LC retention time of 858 s.

In turn, `CCn1cc(CC(=O)NCc2ccc3c(c2)OCO3)c2cccnc21` displayed an RP-LC retention time of 690 s.

Molecule `CCC(C(=O)N1CCN(C(=O)c2ccco2)CC1)n1c2ccccc2c2cnn(C)c(=O)c21` (stereo unspecified) had an RP-LC retention time of 801 s.

The molecule `CCC(=O)N1CCCc2cc(NC(=O)c3ccco3)ccc21` displayed an RP-LC retention time of 725 s.

`COCCCNC(=O)CN1C(=O)CC(c2ccc(Br)s2)=Nc2ccccc21` had an RP-LC retention time of 849 s.

`Cc1cc(C(=O)N2CCN(c3ccccn3)CC2)nc2ccnn12` registered an RP-LC retention time of 556 s.

On to `COc1cc(OC)c(NC(=O)Cn2cc3c(n2)CCCC3)cc1Cl`, for which the RP-LC retention time is 906 s.

As for `COc1ccccc1-c1cc2nc(C)cc(NCC3CCCO3)n2n1` (stereo unspecified), the RP-LC retention time came out at 592 s.

On to `O=C(NCc1ccc2c(c1)CCCN2C(=O)C1CCC1)c1ccc(C(F)(F)F)cc1`, for which the RP-LC retention time was 990 s.

`Cc1ccccc1-c1noc(CN2C(=O)COc3ccccc32)n1` showed an RP-LC retention time of 1040 s.

Turning to `O=C(Cn1c(C2CCCO2)nc2ccccc21)NCc1cccs1` (stereo unspecified), the RP-LC retention time was found to be 615 s.

For `CCN1C(=O)COc2ccc(-c3nc(NC(=O)c4ccco4)sc3C)cc21`, the RP-LC retention time is 883 s.

Turning to `CCCOc1ccc(-c2noc(Cc3nc(-c4cccc(OC)c4)cs3)n2)cc1`, the RP-LC retention time was found to be 1360 s.

In the case of `Cc1ccc(NC(=O)CN2CCc3ccccc3C2C(=O)N2CCCCC2)cc1Cl` (stereo unspecified), the RP-LC retention time is 1030 s.

Molecule `O=C(Nc1nccs1)c1cc2cc([N+](=O)[O-])ccc2s1` showed an RP-LC retention time of 821 s.

Source of the values: the METLIN SMRT retention time set (Domingo-Almenara et al. 2019).
